Laboratory results as given in patent US6245817A, “NPY5 receptor antagonists and methods for using same” (Bayer Corporation, priority 1999, dated 2001).

Tests used:
Human NPY5 Receptor = target: T1, Human NPY5 Receptor (Homo sapiens, UniProt Q15761); test: Human NPY5 Receptor Binding Assay; conditions: [125I]PYY; read-out: hNPY5 IC50
T1 sequence (Q15761 1-445): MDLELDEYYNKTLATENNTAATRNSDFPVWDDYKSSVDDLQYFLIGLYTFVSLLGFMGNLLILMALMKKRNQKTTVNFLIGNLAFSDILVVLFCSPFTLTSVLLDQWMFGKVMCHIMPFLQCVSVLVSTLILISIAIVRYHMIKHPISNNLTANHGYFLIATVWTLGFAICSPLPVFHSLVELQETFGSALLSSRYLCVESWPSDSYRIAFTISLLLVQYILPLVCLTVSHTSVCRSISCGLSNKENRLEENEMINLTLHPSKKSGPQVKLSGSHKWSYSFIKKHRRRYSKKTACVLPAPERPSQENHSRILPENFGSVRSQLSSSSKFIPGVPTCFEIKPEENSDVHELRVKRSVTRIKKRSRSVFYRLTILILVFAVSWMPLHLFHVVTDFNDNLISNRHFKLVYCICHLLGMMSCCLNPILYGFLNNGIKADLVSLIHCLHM
Protocol: Human and Rat NPY5 Receptor Binding Assays
Binding assays are performed on GF/C Millipore 96-well plates pretreated with 0.02% polyethylenimine. The binding buffer is 25 mM Tris, 120 mM NaCl, 5 mM KCl, 1.2 mM KH2 PO4, 2.5 mM CaCl2, 1.2 mM MgSO4, 0.1% BSA and 0.5 mg/ml bacitracin, pH 7.4. Samples consist of membrane protein, 75-100 pM [125I]PYY (porcine, NEN-DuPont) and drug dilution. Nonspecific binding is defined by 1 μM PYY. After a 2 hour incubation at room temperature with constant mixing, the samples are aspirated on a vacuum manifold, and rinsed with ice-cold binding buffer. The amount of radioactivity in each well is quantitated with either gamma counting or liquid scintillation. IC50 values, which correspond to 50% inhibition of specific binding, are determined with non-linear regression analysis.

Rat NPY5 Receptor = target: T2, Rat NPY5 Receptor (Rattus norvegicus, UniProt Q63634); test: Rat NPY5 Receptor Binding Assay; conditions: [125I]PYY; read-out: rNPY5 IC50
T2 sequence (Q63634 1-445): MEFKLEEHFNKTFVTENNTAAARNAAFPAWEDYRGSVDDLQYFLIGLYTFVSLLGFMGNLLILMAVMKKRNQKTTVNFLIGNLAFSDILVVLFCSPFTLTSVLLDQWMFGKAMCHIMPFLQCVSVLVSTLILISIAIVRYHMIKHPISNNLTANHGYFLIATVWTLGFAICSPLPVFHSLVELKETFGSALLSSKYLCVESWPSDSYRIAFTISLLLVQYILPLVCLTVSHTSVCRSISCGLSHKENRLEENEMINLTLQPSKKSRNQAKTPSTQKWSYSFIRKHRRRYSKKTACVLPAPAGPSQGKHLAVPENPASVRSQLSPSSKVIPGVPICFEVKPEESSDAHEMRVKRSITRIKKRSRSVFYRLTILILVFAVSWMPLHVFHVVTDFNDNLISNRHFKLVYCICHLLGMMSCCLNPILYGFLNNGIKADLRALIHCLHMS

| IC50 (Human NPY5 Receptor) | IC50 (Rat NPY5 Receptor) | Compound |
| --- | --- | --- |
| 260 nM | 340 nM | O=C(CSc1nc(-c2ccccc2)no1)Nc1ccc(C2CCCCC2)cc1 [Compound 90, N-(4-Cyclohexyl-phenyl)-2-(3-phenyl-[1,2,4]oxadiazol-ylsulfanyl)-acetamide] |
| 80 nM | 84 nM | Cc1nnc(SCC(=O)Nc2ccc(C3CCCCC3)cc2)s1 [Compound 91, N-(4-Cyclohexyl-phenyl)-2-(5-methyl [1,3,4]thiadiazol-2-ylsulfanyl)-acetamide] |
| 81 nM | 72 nM | O=C(CSc1nnnn1-c1ccc(O)cc1)Nc1ccc(C2CCCCC2)cc1 [Compound 92, N-(4-Cyclohexyl-phenyl)-2-[1-(4-hydroxy-phenyl)-1H-tetrazo-ylsulfanyl]-acetamide] |
| 670 nM | 1200 nM | O=C(CSc1nnc(-c2ccccc2)o1)Nc1ccc(C2CCCCC2)cc1 [Compound 94, N-(4-Cyclohexyl-phenyl)-2-(5-phenyl-[1,3,4]oxadiazo-2-ylsulfanyl)-acetamide] |
| 850 nM | 610 nM | O=C(CSCc1cccc(CS)c1)Nc1ccc(C2CCCCC2)cc1 [Compound 96, N-(4-Cyclohexyl-phenyl)-2-(3-mercaptomethyl-benzylsulfanyl)-acetamide] |
| 110 nM | 90 nM | Nc1ccccc1SCC(=O)Nc1ccc(C2CCCCC2)cc1 [Compound 97, 2-(2-Amino-phenylsulfanyl)-N-(4-cyclohexyl-phenyl)-acetamide] |
| 320 nM | 290 nM | Nc1cccc(SCC(=O)Nc2ccc(C3CCCCC3)cc2)c1 [Compound 98, 2-(3-Amino-phenylsulfanyl)-N-(4-cyclohexyl-phenyl)-acetamide] |
| 690 nM | 510 nM | Nc1ccc(SCC(=O)Nc2ccc(C3CCCCC3)cc2)cc1 [Compound 99, 2-(4-Amino-phenylsulfanyl)-N-(4-cyclohexyl-phenyl)-acetamide] |
| 1400 nM | 1500 nM | O=C(CSCc1cccc(CS)c1)Nc1ccc(C(=O)c2ccccc2)cc1 [Compound 101, N-(4-Benzoyl-phenyl)-2-(3-mercaptomethyl-benzylsulfanyl)-acetamide] |
| 340 nM | 310 nM | Nc1cccc(SCC(=O)Nc2ccc(C(=O)c3ccccc3)cc2)c1 [Compound 102, 2-(3-Amino-phenylsulfanyl)-N-(4-benzoyl-phenyl)-acetamide] |
| 610 nM | 370 nM | O=C(CSC1CCCC1)Nc1ccc(C(=O)c2ccccc2)cc1 [Compound 109, N-(4-Benzoyl-phenyl)-2-cyclopentylsulfanyl-acetamide] |
| 290 nM | 340 nM | O=C(CSCc1ccco1)Nc1ccc(C(=O)c2ccccc2)cc1 [Compound 110, N-(4-Benzoyl-phenyl)-2-(furan-2-ylmethylsulfanyl)-acetamide] |
| 1400 nM | 570 nM | O=C(CSc1nnc(-c2ccco2)[nH]1)Nc1ccc(C2CCCCC2)cc1 [Compound 111, N-(4-Cyclohexyl-phenyl)-2-(5-furan-2-yl-4H-[1,2,4]triazol-3-ylsulfanyl)-acetamide] |
| 900 nM | 390 nM | Cn1c(CO)cnc1SCC(=O)Nc1ccc(C2CCCCC2)cc1 [Compound 114, N-(4-Cyclohexyl-phenyl)-2-(5-hydroxymethyl-1-methyl-1H-imidazol-2-ylsulfanyl)-acetamide] |
| 900 nM | 360 nM | COC(=O)c1cnc(SCC(=O)Nc2ccc(C3CCCCC3)cc2)n1C [Compound 115] |
| 1300 nM | 2000 nM | O=C(CSc1nnc(NC2CCCCC2)s1)Nc1ccc(C2CCCCC2)cc1 [Compound 116] |
| 630 nM | 1500 nM | CSc1sc(-c2nnc(SCC(=O)Nc3ccc(C(=O)c4ccccc4)cc3)n2C)c2c1C=CCC2 [Compound 119] |
| 1300 nM | 530 nM | COc1ccc(-c2nnc(SCC(=O)Nc3ccc(C(=O)c4ccccc4)cc3)n2-c2cccc(C(F)(F)F)c2)cc1 [Compound 120, N-(4-Benzoyl-phenyl)-2-(5-(4-methoxy-phenyl)-4-(3-trifluoromethyl-phenyl)-4H-[1,2,4]triazol-3-ylsulfanyl]-acetamide] |
